Data as given in US20240156765A1, “METHODS OF NEUROPROTECTION AND USES THEREOF” (UNIVERSITY OF TENNESSEE RESEARCH FOUNDATION, priority 2020, published 2024).

How the values were obtained:
[1] = test system: Dutch belted rabbits; assay: Single-drop IOP-lowering efficacy of PRG eye drop formulations; assay type: in vivo
Protocol: At 24 hours after dosing, IOP is still reduced by >20%.
Moreover, the combined effect of all three layers of our W/O/W ME is critical for enhancing the efficacy of PRG. […] Using this same model, we will evaluate our optimized formulations from Test 1.1.
Research Design and Methods: Dutch belted rabbits (Envigo Rabbitry; formerly Covance) will be used in this single-dose design study. Rabbits from this rabbitry can have higher baseline IOP values than those purchased from other rabbitries. Rabbits (equally balanced between males and females) will be acclimated to handling and IOP measurements for at least seven days before initiation of the study. Slit-lamp biomicroscopic and fundoscopic examinations will be performed before and after the study. Our top three formulations from Test 1.1 will be tested in this model using our methods^12. The IOP of both eyes will be measured using a rebound tonometer (Tono-Pen AVIA Vet, Reichert) immediately before the formulation application (baseline, 8 am) and at hourly time intervals after application until the IOP returns to baseline. Using a sterile micropipette tip, thirty microliters of the formulation containing PRG ME or blank control will be instilled topically into one eye of each rabbit, while the fellow eye will receive the formulation vehicle, and therefore serve as controls. Rabbits will be dosed daily at 8 am for 21 days, and IOP collected at 8 am (immediately pre-dosing) and at the time at which the maximum IOP reduction is measured (Tmax) using our methods^12. Curves similar to FIG. 16 will be generated. Biocompatibility of the antioxidant-containing formulations will be assessed using with slit lamp biomicroscopy as in FIG. 17. The person performing the studies will be blinded regarding which eye receives the medicated formation and which one receives the blank control for each rabbit. Assuming a power of 80%, and a marginal difference in IOP outcome of 30%, we estimate that this study will require 10 rabbits. We will also evaluate these formulations in C57Bl/6J (B6) mice and cynomolgus monkeys, which will allow for species confirmation and comparison.

[2] = test system: intraocular pressure (IOP); assay: IOP lowering by topically applied pregabalin without microemulsion (aqueous); assay type: in vivo
[3] = test system: BXD29 mice; assay: Daily topical PRG ME in BXD29 mice (normal tension glaucoma model): IOP and optic nerve axons; assay type: in vivo
From the text: Objective: An obstacle in this study is the in vivo assessment of any direct neuroprotective effects of PRG that are independent of IOP lowering. […] These characteristics make BXD29 ideal for evaluating the direct neuroprotective properties of PRG on RGCs by eliminating indirect effects that would be mediated through IOP reduction.
We have evidence to show, without wishing to be bound by theory, that topical dosing with our PRG ME is neuroprotective to RGC axons in the ON. We dosed BXD29 mice daily with PRG ME beginning at 5 weeks of age (FIG. 9A) before ON degeneration was marked. […] In contrast, ON from mice dosed with unmedicated ME had loss of axon profiles and increased areas of debris (FIG. 9C). The studies will evaluate the role of PRG as a RGC neuroprotectant and define its cellular mechanism of action.

[4] = PRG release from formulation; assay type: physicochemical; settings: as an aqueous eye drop
[5] = target: CACNA2D1 (Homo sapiens, UniProt P54289); settings: listed as PRG; cited from earlier work
CACNA2D1, sequence (P54289 25-1103): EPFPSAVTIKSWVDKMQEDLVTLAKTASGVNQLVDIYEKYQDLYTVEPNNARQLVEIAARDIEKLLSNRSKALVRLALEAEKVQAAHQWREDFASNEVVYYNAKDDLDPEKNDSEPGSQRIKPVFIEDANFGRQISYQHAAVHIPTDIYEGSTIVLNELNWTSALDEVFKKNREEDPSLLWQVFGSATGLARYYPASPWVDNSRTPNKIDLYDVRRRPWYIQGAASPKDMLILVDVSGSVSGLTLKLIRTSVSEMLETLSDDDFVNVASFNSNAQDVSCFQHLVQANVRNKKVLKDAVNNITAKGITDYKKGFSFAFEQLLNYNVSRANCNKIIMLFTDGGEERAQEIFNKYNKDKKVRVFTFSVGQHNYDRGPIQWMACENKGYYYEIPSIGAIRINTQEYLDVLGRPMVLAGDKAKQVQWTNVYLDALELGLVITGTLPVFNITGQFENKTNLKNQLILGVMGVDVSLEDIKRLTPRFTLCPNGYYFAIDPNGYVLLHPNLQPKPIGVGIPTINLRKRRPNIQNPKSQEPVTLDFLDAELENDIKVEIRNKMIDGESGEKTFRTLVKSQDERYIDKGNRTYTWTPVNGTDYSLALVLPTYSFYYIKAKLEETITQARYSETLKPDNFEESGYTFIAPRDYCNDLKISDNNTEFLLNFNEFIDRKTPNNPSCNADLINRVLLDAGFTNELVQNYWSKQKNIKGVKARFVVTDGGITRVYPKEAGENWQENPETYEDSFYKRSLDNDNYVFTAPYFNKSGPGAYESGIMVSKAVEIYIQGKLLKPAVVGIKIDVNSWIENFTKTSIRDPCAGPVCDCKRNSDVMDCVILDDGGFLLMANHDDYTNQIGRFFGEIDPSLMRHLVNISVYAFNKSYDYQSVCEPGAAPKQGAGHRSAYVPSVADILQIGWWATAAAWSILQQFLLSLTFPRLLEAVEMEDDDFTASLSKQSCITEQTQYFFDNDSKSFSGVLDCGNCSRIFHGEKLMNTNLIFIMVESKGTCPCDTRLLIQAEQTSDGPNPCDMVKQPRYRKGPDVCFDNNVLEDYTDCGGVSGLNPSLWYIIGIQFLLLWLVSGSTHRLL

[6] = test system: γ-aminobutyric acid (GABA) receptors; settings: cited from earlier work
[7] = not told; cited from earlier work
[8] = PRG in an oral solution; cited from earlier work
[9] = PRG in the absence of the ME (Carbopol 981 gel), single drop
[10] = topically applied PRG, aqueous / initial formulation without ME
[11] = topically applied PRG, aqueous / initial formulation without ME, listed as PRG

## CC(C)C[C@H](CN)CC(=O)O [pregabalin]
[1]; PRG in the absence of the ME
  AUC of IOP reduction: 38 mmHg·hr
[1]; [9]
  IOP reduction: 30%
  time at which IOP returns to baseline: 10 h
[1]; topical dosing with PRG, Dutch belted rabbits
  IOP lowering, dose dependence: dose dependent manner
[2]; topical dosing
  IOP lowering, dose dependence: dose dependent manner
[2]; [10]
  IOP reduction: 20%
  time at which IOP returns to baseline: ≤ 7 h
[2]; [11]
  IOP reduction: 17%
  time at which IOP returns to baseline: 6 h
[2]; without the microemulsion
  IOP lowering: about 20%
  time at which IOP returns to baseline: 8 to 10 h
[3]; daily topical dosing for 6 weeks from 5 weeks of age
  optic nerve (ON) axons: prevents degeneration of axons
[3]; topical dosing, up to 6 weeks daily
  IOP response: unresponsive
[4]
  PRG release time: 3 h
[5]
  affinity for CACNA2D1: high affinity and specificity
[6]
  binding to GABA receptors: does not bind
[7]
  membrane permeability: high
[8]
  chemical stability: > 1 year
